In this experiment the target is benzodiazepine receptors. Kind of experiment: displacement of radioactive labelled flunitrazepam from benzodiazepine receptors. The experiment is classed as binding. Here is the method:
In the following Table, Ki values are shown for Examples 1-19 which include comparative compounds 1, 7, 9 and 11, which are not compounds of the subject invention but are structurally similar.
The Ki value is determined from a concentration response curve obtained in the presence and absence of a fixed concentration of competitive […], flunitrazepam. […] The lower Ki value indicates a higher affinity for benzodiazepine.
Broadly, the Ki is the dissociation constant of the complex between target and ligand, obtained from inhibition or displacement. Regarding `c1ccc2c(c1)OCc1c(-c3noc(C4CC4)n3)ncn1-2` [Example 1, 3-(5-Cyclopropyl-1,2,4-oxadiazol-3-yl)-4H-imidazo(5,1-c)(1,4)benzoxazine, reference compound], the Ki is 0.0397 µM.

Regarding `CC(C)(C)OC(=O)Nc1ccc2c(c1)OCc1c(-c3noc(C4CC4)n3)ncn1-2` [Example 2, 7-(Amino(t-butoxycarbonyl))-3-(5-cyclopropyl-1,2,4-oxadiazol-3-yl)-4H-imidazo(5,1-c)(1,4)benzoxazine], the Ki stood at 10 µM.

On to `O=C(OC1Oc2ccccc2-n2cnc(-c3noc(C4CC4)n3)c21)c1ccccc1` (stereo not shown) [Example 3, 3-(5-Cyclopropyl-1,2,4-oxadiazol-3-yl)-4-(benzoyloxy)-4H-imidazo(5,1-c)(1,4)benzoxazine], for which the Ki worked out at 0.121 µM.

For the compound `OC1Oc2ccccc2-n2cnc(-c3noc(C4CC4)n3)c21` (stereo not shown) [Example 4, 3-(5-Cyclopropyl-1,2,4-oxadiazol-3-yl)-4-hydroxy-4H-imidazo(5,1-c)(1,4)benzoxazine], the Ki stood at 0.118 µM.

`Nc1ccc2c(c1)OCc1c(-c3noc(C4CC4)n3)ncn1-2` [Example 5, 7-Amino-3-(5-cyclopropyl-1,2,4-oxadiazol-3-yl)-4H-imidazo(5,1-c)(1,4)benzoxazine]: the Ki came out at 0.0654 µM.

For the compound `CC(C)(C)OC(=O)Nc1ccc2c(c1)OC(OC(=O)c1ccccc1)c1c(-c3noc(C4CC4)n3)ncn1-2` (stereo not shown) [Example 6, 7-(Amino(t-butoxycarbonyl))3-(5-cyclopropyl-1,2,4-oxadiazol-3-yl)-4-(benzoyloxy)-4H-imidazo(5,1-c)(1,4)benzoxazine], the Ki stood at 10 µM.

Turning to `CCOC(=O)c1ncn2c1COc1ccccc1-2` [Example 7, Ethyl 4H-imidazo(5,1-c)(1,4)benzoxazine-3-carboxylate, reference compound], the Ki was found to be 0.0596 µM.

Turning to `O=C(Nc1ccc2c(c1)OCc1c(-c3noc(C4CC4)n3)ncn1-2)C(F)(F)F` [Example 8, 7-(Amino(trifluoroacetyl))-3-(5-cyclopropyl-1,2,4-oxadiazol-3-yl)-4H-imidazo(5,1-c)(1,4)benzoxazine], the Ki was 10 µM.

As for `c1ccc2c(c1)OCc1c(-c3nc(C4CC4)no3)ncn1-2` [Example 9, 3-(3-Cyclopropyl-1,2,4-oxadiazol-5-yl)-4H-imidazo(5,1-c)(1,4)benzoxazine, reference compound], the Ki was 0.0726 µM.

For `O=c1oc2ccccc2n2cnc(-c3noc(C4CC4)n3)c12` [Example 10, 3-(5-Cyclopropyl-1,2,4-oxadiazol-3-yl)-4-oxo-4H-imidazo(5,1-c)(1,4)benzoxazine], the Ki stood at 0.656 µM.

On to `CC(C)(C)OC(=O)c1ncn2c1COc1ccccc1-2` [Example 11, Tert-butyl 4H-imidazo(5,1-c)(1,4)benzoxazine-3-carboxylate, reference compound], for which the Ki came to 0.0699 µM.

Regarding `CC1Oc2ccccc2-n2cnc(-c3noc(C4CC4)n3)c21` (stereo not shown) [Example 12, 3-(5-Cyclopropyl-1,2,4-oxadiazol-3-yl)-4-methyl-4H-imidazo(5,1-c)(1,4)benzoxazine], the Ki was determined as 0.114 µM.

As for `Fc1ccc2c(c1)OCc1c(-c3noc(C4CC4)n3)ncn1-2` [Example 13, 3-(5-Cyclopropyl-1,2,4-oxadiazol-3-yl)-7-fluoro-4H-imidazo(5,1-c)(1,4)benzoxazine], the Ki came out at 0.00856 µM.

For the compound `CC1(C)Oc2ccccc2-n2cnc(-c3noc(C4CC4)n3)c21` [Example 14, 3-(5-Cyclopropyl-1,2,4-oxadiazol-3-yl)-4,4-dimethyl-4H-imidazo(5,1-c)(1,4)benzoxazine], the Ki turned out to be 0.0671 µM.

In the case of `CCOC(=O)c1ncn2c1COc1cc(F)ccc1-2` [Example 15, Ethyl 7-fluoro-4H-imidazo(5,1-c)(1,4)benzoxazine-3-carboxylate], the Ki was determined as 0.00459 µM.

Regarding `CC(C)(C)OC(=O)c1ncn2c1COc1cc(F)ccc1-2` [Example 16, Tert-butyl 7-fluoro-4H-imidazo(5,1-c)(1,4)benzoxazine-3-carboxylate], the Ki is 0.0324 µM.

Regarding `CC(C)(C)c1nc(-c2ncn3c2COc2cc(F)ccc2-3)no1` [Example 17, 3-(5-Tert-butyl-1,2,4-oxadiazol-3-yl)-7-fluoro-4H-imidazo(5,1-c)(1,4)benzoxazine], the inhibitory constant (Ki) was 0.443 µM.

With `CN(C)c1noc(-c2ncn3c2COc2cc(F)ccc2-3)n1` [Example 18, 3-(3-dimethylamino-1,2,4-oxadiazol-5-yl)-7-fluoro-4H-imidazo(5,1-c)(1,4)benzoxazine], the Ki worked out at 0.154 µM.

As to `CC(C)(C)OC(=O)c1ncn2c1COc1c-2ccc(F)c1C#N` [Example 19, Tert-butyl 6-cyano-7-fluoro-4H-imidazo(5,1-c)(1,4)benzoxazine-3-carboxylate], the Ki was determined as 0.0046 µM.

Source of the values: US5610158A, “4-oxo- and 4H-imidazo(5,1-c)(1,4)benzoxazines useful as benzodiazepine receptor-binding agents” (The Upjohn Company, priority 1994, dated 1997).
